Experimental findings from patent publication US11530237B2, “Compositions and methods for treating CNS disorders” (Sage Therapeutics, Inc., priority 2014, dated 2022) are described below.

In the assay the target is α1β2γ2 GABAA receptors (Homo sapiens (Human), UniProt P14867+P47870). Description: Patch clamp electrophysiology (QPatch) of recombinant α1β2γ2 GABAA receptors in LTK cells. It is filed as cell-based. The settings on record: 10 μM test article, GABA EC20 = 2 μM, read-out: GABA (α1β2γ2) Qpatch in Ltk, % efficacy at 10 μM. As for the experimental part: Cellular electrophysiology is used to measure the pharmacological properties of our GABAA receptor modulators in heterologous cell systems. Each compound is tested for its ability to affect GABA mediated currents at a suhmaximal agonist dose (GABA EC20=2 μM). LTK cells are stably transfected with the α1β2γ2 subunits of the GABA receptor and CHO cells are transiently transfected with the α4β3δ subunits via the Lipofecatamine method. Cells were passaged at a confluence of about 50-80% and then seeded onto 35 mm sterile culture dishes containing 2 ml culture complete medium without antibiotics or antimycotics. Confluent clusters of cells are electrically coupled (Pritchett et al., Science, 1988, 242, 1306-1308). Because responses in distant cells are not adequately voltage clamped and because of uncertainties about the extent of coupling (Verdoom et al., Neuron 1990, 4, 919-928), cells were cultivated at a density that enables the recording of single cells (without visible connections to other cells).
Whole cell currents were measured with HEKA EPC-10 amplifiers using PatchMaster software or by using the high throughput QPatch platform (Sophion). Bath solution for all experiments contained (in mM): NaCl 137 mM, KCl 4 mM, CaCl2 1.8 mM, MgCl2 1 mM, HEPES 10 mM, D-Glucose 10 mM, pH (NaOH) 7.4. In some cases 0.005% cremophor was also added. Intracellular (pipette) solution contained: KCl 130 mM, MgCl2 1 mM, Mg-ATP 5 mM, HEPES 10 mM, EGTA 5 mM, pH 7.2. During experiments, cells and solutions were maintained at room temperature (19° C.-30° C.). For manual patch clamp recordings, cell culture dishes were placed on the dish holder of the microscope and continuously perfused (1 ml/min) with bath solution. After formation of a Gigaohm seal between the patch electrodes and the cell (-ipette resistance range: 2.5 MΩ-6.0 MΩ; seal resistance range:>1 GΩ) the cell membrane across the pipette tip was ruptured to assure electrical access to the cell interior (whole-cell patch-configuration). For experiments using the QPatch system, cells were transferred as suspension to the QPatch system in the bath solution and automated whole cell recordings were performed.
Cells were voltage clamped at a holding potential of −80 mV. For the analysis of test articles, GABA receptors were stimulated by 2 μM GABA after sequential pre-incubation of increasing concentrations of the test article. Pre-incubation duration was 30 s and the duration of the GABA stimulus was 2s. Test articles were dissolved in DMSO to form stock solutions (10 mM). Test articles were diluted to 0.01, 0.1, 1, and 10 μM in bath solution. All concentrations of test articles were tested on each cell. The relative percentage potentiation was defined as the peak amplitude in response to GABA EC20 in the presence of the test article divided by the peak amplitude in response to GABA EC20 alone, multiplied by 100. For Table 2. GABAA receptors α1β2γ2 and α4β3δ% efficacy: “A” 10-100, “B”>100-500, “C”>500; D indicates the data is not available or has not been determined.
As for `Cc1cn(CC(=O)[C@H]2CC[C@H]3[C@@H]4CC[C@@H]5C[C@](C)(O)CC[C@]5(C)[C@H]4CC[C@]23C)cn1` [Compound 172], the Emax at 10 µM lay in the range of 100 to 500%. `CNC(=O)c1cnn(CC(=O)[C@H]2CC[C@H]3[C@@H]4CC[C@H]5C[C@@](O)(COC)CC[C@]5(C)[C@H]4CC[C@]23C)c1` [Compound 161]: the Emax at 10 µM fell in the range of 10 to 100%.

Regarding `C[C@@]1(O)CC[C@@]2(C)[C@@H](CC[C@@H]3[C@@H]2CC[C@]2(C)[C@@H](C(=O)Cn4ccnc4C#N)CC[C@@H]32)C1` [Compound 129], the Emax at 10 µM lay in the range of 100 to 500%. In the case of `CO[C@H]1C[C@@]2(C)[C@@H](CC[C@@H]3[C@@H]2CC[C@]2(C)[C@@H](C(=O)Cn4ccnn4)CC[C@@H]32)C[C@@H]1O` [Compound 3] it was 100 to 500%. In the case of `C[C@@]1(O)CC[C@@]2(C)[C@@H](CC[C@@H]3[C@@H]2CC[C@]2(C)[C@@H](C(=O)Cn4nc5cccc(F)c5n4)CC[C@@H]32)C1` [Compound 128] it was 100 to 500%; in that of `C[C@@]1(O)CC[C@@]2(C)[C@@H](CC[C@@H]3[C@@H]2CC[C@]2(C)[C@@H](C(=O)Cn4cc(Cl)cn4)CC[C@@H]32)C1` [Compound 137], 100 to 500%. To `COC[C@@]1(O)CC[C@@]2(C)[C@@H](CC[C@@H]3[C@@H]2CC[C@]2(C)[C@@H](C(=O)Cn4cc(OC)cn4)CC[C@@H]32)C1` [Compound 158] belongs 100 to 500%; to `C[C@@]1(O)CC[C@@]2(C)[C@@H](CC[C@H]3[C@@H]4CC[C@H](C(=O)Cn5cc(C#N)cn5)[C@@]4(C)CC(=O)[C@@H]32)C1` [Compound 196], 100 to 500%; to `CCOc1cnn(CC(=O)[C@H]2CC[C@H]3[C@@H]4CC[C@@H]5C[C@](C)(O)CC[C@]5(C)[C@H]4CC[C@]23C)c1` [Compound 145], greater than 500%. On to `CC(=O)Nc1cnn(CC(=O)[C@H]2CC[C@H]3[C@@H]4CC[C@@H]5C[C@](C)(O)CC[C@]5(C)[C@H]4CC[C@]23C)c1` [Compound 171], for which the Emax at 10 µM lay in the range of 100 to 500%. In the case of `CO[C@H]1C[C@@]2(C)[C@@H](CC[C@@H]3[C@@H]2CC[C@]2(C)[C@@H](C(=O)Cn4nccn4)CC[C@@H]32)C[C@]1(C)O` [Compound 42] it was 100 to 500%. For the molecule `C[C@@]1(O)CC[C@@]2(C)[C@H](CC[C@@H]3[C@@H]2CC[C@]2(C)[C@@H](C(=O)Cn4cc(C(N)=O)cn4)CC[C@@H]32)C1` [Compound 167], the Emax at 10 µM was in the range of 100 to 500%. In the case of `COc1ccc2c(c1)nnn2CC(=O)[C@H]1CC[C@H]2[C@@H]3CC[C@H]4C[C@](C)(O)CC[C@]4(C)[C@H]3CC[C@]12C` [Compound 127], the Emax at 10 µM lay in the range of 100 to 500%. `C[C@@]1(O)CC[C@@]2(C)[C@@H](CC[C@@H]3[C@@H]2CC[C@]2(C)[C@@H](C(=O)Cn4cnc(C#N)c4)CC[C@@H]32)C1` [Compound 154]: the Emax at 10 µM was in the range of 100 to 500%. Turning to `CNC(=O)c1cnn(CC(=O)[C@H]2CC[C@H]3[C@@H]4CC[C@@H]5C[C@](C)(O)CC[C@]5(C)[C@H]4CC[C@]23C)c1` [Compound 168], the Emax at 10 µM lay within 100 to 500%. In the case of `COC[C@@]1(O)CC[C@@]2(C)[C@@H](CC[C@@H]3[C@@H]2CC[C@]2(C)[C@@H](C(=O)Cn4ccnc4)CC[C@@H]32)C1` [Compound 141] it was greater than 500%; in that of `CO[C@H]1C[C@@]2(C)[C@@H](CC[C@@H]3[C@@H]2CC[C@]2(C)[C@@H](C(=O)CN4CCOCC4)CC[C@@H]32)C[C@@H]1O` [Compound 1], 100 to 500%. Consider `CCOc1cnn(CC(=O)[C@H]2CC[C@H]3[C@@H]4CC[C@H]5C[C@@](O)(COC)CC[C@]5(C)[C@H]4CC[C@]23C)c1` [Compound 159], for which the Emax at 10 µM was greater than 500%.

Regarding `Cc1cnn(CC(=O)[C@H]2CC[C@H]3[C@@H]4CC[C@@H]5C[C@](C)(O)CC[C@]5(C)[C@H]4CC[C@]23C)c1` [Compound 147], the Emax at 10 µM was greater than 500%. In the case of `CC(C)Oc1cnn(CC(=O)[C@H]2CC[C@H]3[C@@H]4CC[C@@H]5C[C@](C)(O)CC[C@]5(C)[C@H]4CC[C@]23C)c1` [Compound 173], the Emax at 10 µM is 100 to 500%.

Regarding `COc1ccc2nnn(CC(=O)[C@H]3CC[C@H]4[C@@H]5CC[C@H]6C[C@](C)(O)CC[C@]6(C)[C@H]5CC[C@]34C)c2c1` [Compound 126], the Emax at 10 µM is 100 to 500%.

For the molecule `Cc1cnn(CC(=O)[C@H]2CC[C@H]3[C@@H]4CC[C@H]5C[C@](C)(O)CC[C@]5(C)[C@H]4CC[C@]23C)c1` [Compound 130], the Emax at 10 µM was 100 to 500%. To `Cc1nccn1CC(=O)[C@H]1CC[C@H]2[C@@H]3CC[C@@H]4C[C@](C)(O)CC[C@]4(C)[C@H]3CC[C@]12C` [Compound 174] belongs 100 to 500%. In the case of `C[C@@]1(O)CC[C@@]2(C)[C@@H](CC[C@@H]3[C@@H]2CC[C@]2(C)[C@@H](C(=O)Cn4nc5ccc(Cl)c(F)c5n4)CC[C@@H]32)C1` [Compound 112] it was 100 to 500%. With `Cc1cncn1CC(=O)[C@H]1CC[C@H]2[C@@H]3CC[C@H]4C[C@](C)(O)CC[C@]4(C)[C@H]3CC[C@]12C` [Compound 136], the Emax at 10 µM was in the range of 100 to 500%. To `COc1ccc2nn(CC(=O)[C@H]3CC[C@H]4[C@@H]5CC[C@H]6C[C@](C)(O)CC[C@]6(C)[C@H]5CC[C@]34C)nc2c1` [Compound 125] belongs 100 to 500%; to `COc1cnn(CC(=O)[C@H]2CC[C@H]3[C@@H]4CC[C@@H]5C[C@](C)(O)CC[C@]5(C)[C@H]4CC[C@]23C)c1` [Compound 166], 100 to 500%; to `COC[C@@]1(O)CC[C@@]2(C)[C@@H](CC[C@@H]3[C@@H]2CC[C@]2(C)[C@@H](C(=O)Cn4cc(C(F)(F)F)cn4)CC[C@@H]32)C1` [Compound 140], 100 to 500%. With `COC[C@@]1(O)CC[C@@]2(C)[C@@H](CC[C@@H]3[C@@H]2CC[C@]2(C)[C@@H](C(=O)Cn4cnc(C#N)c4)CC[C@@H]32)C1` [Compound 178], the Emax at 10 µM was greater than 500%. On to `C[C@@]1(O)CC[C@@]2(C)[C@@H](CC[C@@H]3[C@@H]2CC[C@]2(C)[C@@H](C(=O)Cn4cc(C(F)(F)F)cn4)CC[C@@H]32)C1` [Compound 131], for which the Emax at 10 µM is 100 to 500%. To `Cc1cn(CC(=O)[C@H]2CC[C@H]3[C@@H]4CC[C@H]5C[C@](C)(O)CC[C@]5(C)[C@H]4CC[C@]23C)cn1` [Compound 135] belongs 100 to 500%. To `COC[C@@]1(O)CC[C@@]2(C)[C@@H](CC[C@@H]3[C@@H]2CC[C@]2(C)[C@@H](C(=O)Cn4nc5ccc(Cl)cc5n4)CC[C@@H]32)C1` [Compound 165] belongs 100 to 500%. To `CN(C)C(=O)c1cnn(CC(=O)[C@H]2CC[C@H]3[C@@H]4CC[C@@H]5C[C@](C)(O)CC[C@]5(C)[C@H]4CC[C@]23C)c1` [Compound 169] belongs 100 to 500%. Regarding `COc1cnn(CC(=O)[C@H]2CC[C@H]3[C@@H]4CC[C@H]5C[C@](C)(O)CC[C@]5(C)[C@H]4CC[C@]23C)c1` [Compound 148], the Emax at 10 µM fell in the range of 100 to 500%.
